Here are results for three compounds from US8420637B2, “Abnormal cannabidiols as agents for lowering intraocular pressure” (Allergan, Inc., priority 2006, dated 2013).

In the test the test system is Laser-induced unilaterally ocular hypertensive Cynomolgus monkeys. As to the kind of experiment: Intraocular pressure by applanation pneumatonometry in conscious animals. Type of test: in vivo. More on the design: key: *: one star indicates no potency; ***: three stars indicates a very potent compound. To be noted: topical to one eye, dosed once, IOP measured over the course of 24 hours; female ocular hypertensive Cynomolgus monkeys. The method, then: Intraocular pressure was measured by applanation pneumatonometry in conscious animals. The test compound was administered topically to one eye while vehicle was given to the fellow eye in a masked fashion. Laser-induced unilaterally ocular hypertensive Cynomolgus monkeys (females) were dosed once and the IOP was measured over the course of 24 hours.
The results are shown in the Table, below wherein the stars indicating the potency of the compound. That is, one star indicates no potency, three stars indicates a very potent compound.
With `Oc1cc(O)c(C2CCCCC2)c(Cl)c1` [9 (b), 5-Chloro-4-cyclohexylbenzene-1,3-diol], the Efficacy result is “***”. In the case of `C=C(C)C1CCC(C)=CC1c1c(O)cc(O)cc1Cl` (stereo not drawn) [Example 5, 5-Chloro-4-(6-Isopropenyl-3-methylcyclohex-2-enyl)benzene-1,3-diol] it was “***”; in that of `CC1CC(=O)CC(=O)N1C1CCCCC1` (stereo not drawn) [Example 20, 1-Cyclohexyl-6-methylpiperidine-2,4-dione], “***”.
